In PMC3109749 (ACS medicinal chemistry letters, 2011):
Values belong to the molecule of their own block, whether it stands above or below them.

How the values were obtained:
[1] = target: T1, serine hydrolase superfamily (FAAH and other FP-reactive serine hydrolases) (Homo sapiens, UniProt O00519); type: biochemical; settings: brain membrane proteome; at both 10 and 100 μM
T1 sequence (O00519 1-579): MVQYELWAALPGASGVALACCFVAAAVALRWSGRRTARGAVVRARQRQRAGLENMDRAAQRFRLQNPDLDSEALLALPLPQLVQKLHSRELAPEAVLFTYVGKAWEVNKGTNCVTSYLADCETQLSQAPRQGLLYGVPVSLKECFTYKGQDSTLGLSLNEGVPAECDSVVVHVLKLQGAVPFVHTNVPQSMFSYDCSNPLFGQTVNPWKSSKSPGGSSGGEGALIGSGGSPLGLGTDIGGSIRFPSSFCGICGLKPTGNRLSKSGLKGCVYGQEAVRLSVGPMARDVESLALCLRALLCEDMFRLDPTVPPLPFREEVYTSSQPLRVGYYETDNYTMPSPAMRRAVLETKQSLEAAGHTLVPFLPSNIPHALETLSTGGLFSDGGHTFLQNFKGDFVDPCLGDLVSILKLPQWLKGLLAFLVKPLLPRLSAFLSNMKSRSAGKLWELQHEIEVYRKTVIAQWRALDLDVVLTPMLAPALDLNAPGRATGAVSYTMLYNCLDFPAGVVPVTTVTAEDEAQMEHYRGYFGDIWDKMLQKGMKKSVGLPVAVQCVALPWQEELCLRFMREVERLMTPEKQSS

[2] = system: serine hydrolase superfamily (FAAH and other FP-reactive serine hydrolases); type: biochemical, human; settings: for off targets in human membrane proteome (ABPP): brain membrane proteome, 10 and 100 μM
[3] = target: T2, serine hydrolase superfamily (FAAH and other FP-reactive serine hydrolases) (Mus musculus, UniProt O08914); type: biochemical; settings: brain membrane proteome; at both 10 and 100 μM
T2 sequence (O08914 1-579): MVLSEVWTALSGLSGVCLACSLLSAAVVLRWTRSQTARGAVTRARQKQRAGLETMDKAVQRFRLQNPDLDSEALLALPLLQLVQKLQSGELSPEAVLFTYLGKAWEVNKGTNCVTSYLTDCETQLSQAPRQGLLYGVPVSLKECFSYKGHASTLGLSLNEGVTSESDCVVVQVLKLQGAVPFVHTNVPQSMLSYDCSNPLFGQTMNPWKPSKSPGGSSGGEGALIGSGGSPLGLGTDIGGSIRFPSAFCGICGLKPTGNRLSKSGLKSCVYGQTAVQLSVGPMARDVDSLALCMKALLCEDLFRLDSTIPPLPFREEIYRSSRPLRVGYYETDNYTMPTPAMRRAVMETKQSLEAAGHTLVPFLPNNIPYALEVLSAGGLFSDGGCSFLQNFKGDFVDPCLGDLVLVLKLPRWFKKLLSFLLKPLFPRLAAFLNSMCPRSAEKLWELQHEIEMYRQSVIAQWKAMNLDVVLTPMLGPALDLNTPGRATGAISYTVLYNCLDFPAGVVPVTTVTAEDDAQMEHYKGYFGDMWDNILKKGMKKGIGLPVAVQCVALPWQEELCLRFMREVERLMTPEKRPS

[4] = system: serine hydrolase superfamily (FAAH and other FP-reactive serine hydrolases); type: biochemical, mouse; settings: for off targets in mouse membrane proteome (ABPP): brain membrane proteome, 10 and 100 μM
[5] = system: rat model of inflammatory pain (CFA); settings: not shown in this paper's figure; cited from earlier work
[6] = target: T3, human FAAH (hFAAH) (Homo sapiens, UniProt O00519); test: enzyme-coupled human FAAH assay, kinact/Ki; type: biochemical
T3 sequence (O00519 32-579 limits assumed): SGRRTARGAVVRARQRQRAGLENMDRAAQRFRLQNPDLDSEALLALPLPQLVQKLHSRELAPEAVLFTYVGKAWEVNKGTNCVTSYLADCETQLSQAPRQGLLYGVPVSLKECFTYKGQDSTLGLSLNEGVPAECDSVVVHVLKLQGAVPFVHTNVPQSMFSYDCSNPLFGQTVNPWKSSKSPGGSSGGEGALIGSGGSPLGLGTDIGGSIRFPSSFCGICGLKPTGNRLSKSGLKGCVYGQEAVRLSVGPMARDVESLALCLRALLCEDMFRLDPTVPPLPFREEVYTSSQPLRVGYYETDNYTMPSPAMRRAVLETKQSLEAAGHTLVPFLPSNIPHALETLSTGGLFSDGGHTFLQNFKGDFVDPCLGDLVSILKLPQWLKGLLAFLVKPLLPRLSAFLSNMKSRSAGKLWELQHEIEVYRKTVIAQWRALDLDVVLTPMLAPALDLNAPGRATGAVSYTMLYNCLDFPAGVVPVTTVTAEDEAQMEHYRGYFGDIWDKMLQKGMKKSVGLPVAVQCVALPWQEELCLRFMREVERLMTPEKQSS

[7] = target: T4, rat FAAH (rFAAH) (Rattus norvegicus, UniProt P97612); test: enzyme-coupled rat FAAH assay, kinact/Ki; type: biochemical
T4 sequence (P97612 1-579): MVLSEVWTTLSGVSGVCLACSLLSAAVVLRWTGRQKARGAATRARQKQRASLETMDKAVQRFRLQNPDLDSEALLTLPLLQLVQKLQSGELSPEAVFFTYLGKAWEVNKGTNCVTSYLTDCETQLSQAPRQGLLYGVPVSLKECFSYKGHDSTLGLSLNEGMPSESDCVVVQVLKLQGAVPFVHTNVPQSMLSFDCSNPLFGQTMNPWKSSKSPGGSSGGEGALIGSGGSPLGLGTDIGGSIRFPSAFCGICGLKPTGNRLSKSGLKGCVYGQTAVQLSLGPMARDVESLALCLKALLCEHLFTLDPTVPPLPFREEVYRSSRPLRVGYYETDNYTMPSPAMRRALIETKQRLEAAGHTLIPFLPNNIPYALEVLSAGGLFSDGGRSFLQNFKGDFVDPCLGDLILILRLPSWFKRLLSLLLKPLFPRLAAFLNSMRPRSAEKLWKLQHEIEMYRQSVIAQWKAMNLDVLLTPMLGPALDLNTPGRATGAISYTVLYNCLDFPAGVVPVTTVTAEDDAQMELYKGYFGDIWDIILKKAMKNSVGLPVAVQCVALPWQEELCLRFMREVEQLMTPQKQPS

[8] = human liver microsomal stability and binding; type: in vitro ADME; settings: predicted from in vitro experiments
[9] = target: T5, FAAH (Rattus norvegicus, UniProt P97612); test: in vivo FAAH activity accompanying efficacy; settings: at efficacious doses starting at 0.1 mg/kg; with elevations in anandamide and other fatty acid amides in brain and plasma
T5 sequence (P97612 1-579): T4 sequence (P97612 1-579)

[10] = soluble proteome of liver, up to 100 μM

fold more potent (higher kinact/Ki) than 7 for hFAAH ([6]; compared to PF-3845 (7)): approximately 2 fold | fold more potent (higher kinact/Ki) than 7 for rFAAH ([7]; compared to PF-3845 (7)): ~4 fold
SMILES: O=C(Nc1cccnc1)N1CCC(=Cc2cccc(Oc3ccc(C(F)(F)F)cn3)c2)CC1 [Compound 11]

fold higher kinact/Ki value for hFAAH as compared to 11 ([6]; compared to 11): 2 fold
SMILES: O=C(Nc1cnccn1)N1CCC(=Cc2cccc(Oc3ccc(C(F)(F)F)cn3)c2)CC1 [Compound 22]

inhibition of FAAH in human membrane proteome (ABPP) [1]: completely inhibited FAAH | off targets in human membrane proteome (ABPP) [2]: no off targets | inhibition of FAAH in mouse membrane proteome (ABPP) [3]: completely inhibited FAAH | off targets in mouse membrane proteome (ABPP) [4]: no off targets | predicted human blood clearance [8]: 0.6 mL/min/kg
SMILES: O=C(Nc1cccnn1)N1CCC(=Cc2cccc(Oc3ccc(C(F)(F)F)cn3)c2)CC1 [Compound 23]
inhibition of FAAH activity in vivo [9]: near complete inhibition of FAAH activity

fold less potent for hFAAH as compared to 23 [6]: 2 fold
SMILES: O=C(Nc1cccnn1)N1CCC(=Cc2cccc(Oc3ccc(C(F)(F)F)cc3)c2)CC1 [Compound 26]

additional fold loss in potency on removal of the trifluoromethyl substituent ([6]; compared to 26): 10 fold
SMILES: O=C(Nc1cccnn1)N1CCC(=Cc2cccc(Oc3ccccc3)c2)CC1 [Compound 27]

fold less potent for hFAAH as compared to 23 [6]: ≤ 2 fold
SMILES: O=C(Nc1cccnn1)N1CCC(=Cc2cccc(Oc3ccc(C(F)(F)F)nc3)c2)CC1 [Compound 28]

Second part, the molecule before the results:

SMILES: NC(=O)c1cccc(-c2cccc(OC(=O)NC3CCCCC3)c2)c1 [Compound 2]
inhibition of FAAH in human membrane proteome (ABPP) [1]: completely inhibited FAAH | off targets in human membrane proteome (ABPP) [2]: no off targets | off targets among serine hydrolases in human soluble liver proteome (ABPP) [2, 10]: multiple off targets | inhibition of FAAH in mouse membrane proteome (ABPP) [3]: completely inhibited FAAH | off targets in mouse membrane proteome (ABPP) [4]: no off targets | off targets among serine hydrolases in mouse soluble liver proteome (ABPP) [4, 10]: multiple off targets

SMILES: O=C(Nc1cccnc1)N1CCC(Cc2cccc(Oc3ccc(C(F)(F)F)cn3)c2)CC1 [Compound 7]
minimum effective dose (MED), mechanical allodynia [5]: 3 mg/kg

SMILES: O=C(Nc1cccnc1)N1CCC/C(=C\c2cccc(Oc3ccc(C(F)(F)F)cn3)c2)C1 [Compound 16]
fold less potent than 11 for hFAAH ([6]; compared to 11): approximately 19 fold

SMILES: O=C(Nc1cccnc1)N1CCC/C(=C/c2cccc(Oc3ccc(C(F)(F)F)cn3)c2)C1 [Compound 17]
FAAH potency in words ([6]; relative to the parent analogue (9 vs 4, 10 vs 5, 12-17 vs 11)): activity was almost completely abolished

SMILES: Cc1noc(NC(=O)N2CCC(=Cc3cccc(Oc4ccc(C(F)(F)F)cn4)c3)CC2)c1C [Compound 24]
fold less potent for hFAAH as compared to 23 [6]: 5 fold | fold more potent for rFAAH as compared to 23 ([7]; compared to 23): 2 fold
